The test system of one assay is TGF-β. The assay can be described thus: AlphaScreen SureFire p-SMAD3 (Ser423/425) assay, TGF-β-stimulated cells. Type of assay: cell-based. The conditions noted are these: Mus musculus; p-SMAD3 (Ser423/425) AlphaScreen in cell lysate; MPC-11; TGF-β stimulation; read-out: TGF-β: inhibition of TGF-β signaling, TGF-β pSMAD (MPC-11). Put shortly:
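The p-SMAD-3 (Ser423/425) SureFire assay measured phosphorylation of endogenous SMAD-3 in cell lysates. Cells were plated overnight in collagen-coated plates, exposed to three-fold serially diluted compounds for about 10 minutes, then stimulated with TGFβ. Lysates (5 μL) received acceptor bead mix for 2 hours, then donor beads for 1½ hours before AlphaScreen reading.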
In general terms: In Alpha technology, singlet oxygen from a donor bead excites a nearby acceptor bead.

The test system of a further assay is GDF8. Nature of the assay: AlphaScreen SureFire p-SMAD3 (Ser423/425) assay, GDF8-stimulated cells. Type of assay: cell-based. The conditions noted are these: Mus musculus, MPC-11; p-SMAD3 (Ser423/425) AlphaScreen in cell lysate; MPC11; GDF8 stimulation; read-out: GDF8: inhibition of GDF8 signaling, GDF pSMAD (MPC11). Put shortly:
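Lysate (5 μL) went into 384-well shallow plates with 5 μL of Reaction Buffer, Activation Buffer and AlphaScreen Acceptor bead mix. Plates were sealed, kept dark and shaken for 2 hours at room temperature. Donor beads in dilution buffer (2 μL) were added for another 1½ hours, and p-SMAD3 signal was read on a Synergy-4 or Enspire reader.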

With `Fc1cccc(F)c1-c1nc2n(c1-c1ccc3[nH]ncc3c1)CCC2` [Compound 212, 5-(2-(2,6-difluorophenyl)-6,7-dihydro-5H-pyrrolo[1,2-a]imidazol-3-yl)-1H-indazole], the IC50 with TGF-β and in the assay on GDF8 was more than 1000 nM in each case.

Consider `Fc1cccc(F)c1-c1nc2n(c1-c1ccc3cn[nH]c3c1)CCC2` [Compound 213, 6-(2-(2,6-difluorophenyl)-6,7-dihydro-5H-pyrrolo[1,2-a]imidazol-3-yl)-1H-indazole], for which the IC50 in the assay on TGF-β and in the assay on GDF8 was more than 1000 nM throughout.

As for `Fc1cccc(F)c1-c1nc2n(c1-c1ccc3nccnc3c1)CCC2` [Compound 215, 6-(2-(2,6-difluorophenyl)-6,7-dihydro-5H-pyrrolo[1,2-a]imidazol-3-yl)quinoxaline], the IC50 with TGF-β and with GDF8 was more than 1000 nM throughout.

In the case of `Fc1cccc(F)c1-c1nc2n(c1-c1ccc3ncccc3c1)CCC2` [Compound 216, 6-(2-(2,6-difluorophenyl)-6,7-dihydro-5H-pyrrolo[1,2-a]imidazol-3-yl)quinoline], the IC50 with TGF-β and in the assay with GDF8 was more than 1000 nM each time.

In the case of `Fc1cc(F)c(-c2nc3n(c2-c2ccc4cn[nH]c4c2)CCC3)cc1F` [Compound 217, 6-(2-(2,4,5-trifluorophenyl)-6,7-dihydro-5H-pyrrolo[1,2-a]imidazol-3-yl)-1H-indazole], the IC50 in the assay with TGF-β and in the assay with GDF8 was 100 to 1000 nM throughout.

`Fc1cc(F)c(-c2nc3n(c2-c2ccc4ncsc4c2)CCC3)cc1F` [Compound 218, 6-(2-(2,4,5-trifluorophenyl)-6,7-dihydro-5H-pyrrolo[1,2-a]imidazol-3-yl)benzo[d]thiazole]: the IC50 in the assay with TGF-β is 50 to 100 nM; in the assay on GDF8 it was less than 50 nM.

Regarding `Fc1cc(F)c(-c2nc3n(c2-c2ccc4nccnc4c2)CCC3)cc1F` [Compound 219, 6-(2-(2,4,5-trifluorophenyl)-6,7-dihydro-5H-pyrrolo[1,2-a]imidazol-3-yl)quinoxaline], the IC50 in the assay with TGF-β is 100 to 1000 nM; in the assay on GDF8, less than 50 nM.

Consider `Fc1cc(F)c(-c2nc3n(c2-c2ccc4[nH]ncc4c2)CCC3)cc1F` [Compound 220, 5-(2-(2,4,5-trifluorophenyl)-6,7-dihydro-5H-pyrrolo[1,2-a]imidazol-3-yl)-1H-indazole], for which the IC50 with TGF-β was 100 to 1000 nM; with GDF8, 50 to 100 nM.

Regarding `Fc1ccc(F)c(-c2nc3n(c2-c2ccc4[nH]ncc4c2)CCC3)c1F` [Compound 221, 5-(2-(2,3,6-trifluorophenyl)-6,7-dihydro-5H-pyrrolo[1,2-a]imidazol-3-yl)-1H-indazole], the IC50 is more than 1000 nM in the assay on TGF-β and 100 to 1000 nM in the assay with GDF8.

In the case of `Fc1ccc(F)c(-c2nc3n(c2-c2ccc4ncsc4c2)CCC3)c1F` [Compound 222, 6-(2-(2,3,6-trifluorophenyl)-6,7-dihydro-5H-pyrrolo[1,2-a]imidazol-3-yl)benzo[d]thiazole], the IC50 in the assay with TGF-β and with GDF8 was 100 to 1000 nM throughout.

As to `Fc1cccc(-c2nc3n(c2-c2ccc4c(c2)OCO4)CCC3)c1` [Compound 223, 3-(benzo[d][1,3]dioxol-5-yl)-2-(3-fluorophenyl)-6,7-dihydro-5H-pyrrolo[1,2-a]imidazole], the IC50 with TGF-β and in the assay with GDF8 was more than 1000 nM throughout.

In the case of `Fc1ccc(-c2nc3n(c2-c2ccc4nccnc4c2)CCC3)c(F)c1F` [Compound 224, 6-(2-(2,3,4-trifluorophenyl)-6,7-dihydro-5H-pyrrolo[1,2-a]imidazol-3-yl)quinoxaline], the IC50 was more than 1000 nM in the assay with TGF-β and 100 to 1000 nM in the assay on GDF8.

Values taken from patent US10696693B2, “Fused imidazole derivatives as TGF-beta inhibitors” (Rigel Pharmaceuticals, Inc., priority 2014, dated 2020).
